Measured values reported in publication PMC10950554 (Methods in enzymology, 2023).

Target: ERK2 (Rattus norvegicus, UniProt P63086)
Experiment: competitive fluorescence anisotropy displacement of FITC-X-Lig-D
Format: binding

Chain of ERK2 (P63086 2-358): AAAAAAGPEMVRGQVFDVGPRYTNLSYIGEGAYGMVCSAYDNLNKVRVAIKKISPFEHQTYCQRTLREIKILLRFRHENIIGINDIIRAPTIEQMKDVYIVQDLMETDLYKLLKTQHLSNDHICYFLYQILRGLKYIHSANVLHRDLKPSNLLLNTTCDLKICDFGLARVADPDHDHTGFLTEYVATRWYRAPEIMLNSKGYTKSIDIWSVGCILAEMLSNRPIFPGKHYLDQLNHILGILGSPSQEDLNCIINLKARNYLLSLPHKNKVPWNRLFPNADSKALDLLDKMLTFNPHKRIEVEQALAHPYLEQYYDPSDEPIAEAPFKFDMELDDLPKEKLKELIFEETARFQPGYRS

Ki: 730 ± 260 nM
SMILES: CC1(C)C2CCC(CN=C(N)CSS(=O)(=O)O)C1C2 (stereo not shown) [NSC 194308]
